Source: ChEMBL document CHEMBL1136094, “Novel, potent and selective cyclin D1/CDK4 inhibitors: indolo[6,7-a]pyrrolo[3,4-c]carbazoles” (Bioorg Med Chem Lett, 2003)
Values after ≈ are worked out from the molar mass of the structure shown. Values joined by “and” are separate entries in the source; they are usually repeats but may differ in a detail not shown here. Equal entries are not always repeated.

Experiments:
[1] = system: HCT-116; test: GI arrest (3 fold increase over control) in HCT116 cells was determined by flow cytometry after 24 hr incubation; assay type: functional, Homo sapiens
[2] = system: HCT-116; test: GI arrest (1 fold increase over control) in HCT116 cells was determined by flow cytometry after 24 hr incubation; assay type: functional, Homo sapiens
[3] = system: NCI-H460; test: In vitro antiproliferative activity against human carcinoma cell line H460 (lung); assay type: functional, cell-based
[4] = system: HCT-116; test: In vitro antiproliferative activity against human carcinoma cell line HCT116 (colon); assay type: functional, cell-based
[5] = target: cAMP-dependent protein kinase (PKA) (Homo sapiens, UniProt P22694+P17612+P22612); test: Inhibitory activity against Protein kinase A (Histone); assay type: protein assay
[6] = target: Cyclin-dependent kinase 4 (Homo sapiens) (UniProt P11802); test: Inhibition of Rb phosphorylation at the CDK4 specific Ser780 residue (3 fold increase over control) after 24 hr incubation in HCT116 cells; assay type: functional, cell-based; conditions: HCT-116, concentration not given here
[7] = target: Cyclin-dependent kinase 2/cyclin E1 (Homo sapiens, UniProt P24941); test: Inhibition of RbING phosphorylation by Cyclin E1-cyclin-dependent kinase 2; assay type: protein-complex assay
[8] = target: Cyclin-dependent kinase 4 (Homo sapiens) (UniProt P11802); test: Inhibition of Rb phosphorylation at the CDK4 specific Ser780 residue (1 fold increase over control) after 24 hr incubation in HCT116 cells; assay type: functional, cell-based; conditions: HCT-116, concentration not given here
[9] = target: T1, Cyclin-dependent kinase 4/cyclin D1 (Homo sapiens, UniProt P11802); test: Inhibitory activity against Cyclin D1-cyclin-dependent kinase 4 in enzymatic assay by measuring phosphorylation of RbING; assay type: protein-complex assay
[10] = target: T1, Cyclin-dependent kinase 4/cyclin D1; test: Inhibitory activity against Cyclin D1-cyclin-dependent kinase 4 in enzymatic assay by measuring phosphorylation of Rb21; assay type: protein-complex assay
[11] = target: Cyclin-dependent kinase 2/cyclin E (Homo sapiens, UniProt P24941); test: Inhibitory activity against Cyclin E-cyclin-dependent kinase 2 in enzymatic assay by measuring phosphorylation of RbING; assay type: protein-complex assay
[12] = target: CaM kinase II (Homo sapiens, UniProt Q13557+Q13555+Q13554+Q9UQM7); test: Inhibitory activity against Calcium/calmodulin-dependent protein kinase type II; assay type: protein assay
[13] = Aqueous solubility (in situ) in D5W after 1 week was determined; assay type: physicochemical; conditions: for solubility at 168 h: D5W
[14] = system: HCT-116; test: Flow cytometry of HCT116 cells, G1 arrest (3 fold increase over control) after 24 hr r; assay type: functional
[15] = target: Cyclin-dependent kinase 4 (Homo sapiens) (UniProt P11802); test: Inhibition of Cyclin-dependent kinase 4 specific Ser780 Rb phosphorylation, 3 fold increase over 24 hr incubation in HCT116 cells; assay type: functional, cell-based; conditions: HCT-116; concentration not given here
[16] = system: HCT-116; test: Flow cytometry of HCT116 cells, G1 arrest (2.6 fold increase over control) after 24 hr r; assay type: functional, Homo sapiens

T1 sequence (P11802 whole entry): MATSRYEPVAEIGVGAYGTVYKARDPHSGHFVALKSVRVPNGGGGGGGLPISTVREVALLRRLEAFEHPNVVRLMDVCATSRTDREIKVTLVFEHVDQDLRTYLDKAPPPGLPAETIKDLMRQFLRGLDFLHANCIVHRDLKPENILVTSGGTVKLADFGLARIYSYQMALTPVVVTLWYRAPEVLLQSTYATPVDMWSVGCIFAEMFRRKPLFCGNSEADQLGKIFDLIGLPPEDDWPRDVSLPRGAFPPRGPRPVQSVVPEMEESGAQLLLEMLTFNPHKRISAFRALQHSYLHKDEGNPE
T1 sequence (P24385 whole entry, further chain): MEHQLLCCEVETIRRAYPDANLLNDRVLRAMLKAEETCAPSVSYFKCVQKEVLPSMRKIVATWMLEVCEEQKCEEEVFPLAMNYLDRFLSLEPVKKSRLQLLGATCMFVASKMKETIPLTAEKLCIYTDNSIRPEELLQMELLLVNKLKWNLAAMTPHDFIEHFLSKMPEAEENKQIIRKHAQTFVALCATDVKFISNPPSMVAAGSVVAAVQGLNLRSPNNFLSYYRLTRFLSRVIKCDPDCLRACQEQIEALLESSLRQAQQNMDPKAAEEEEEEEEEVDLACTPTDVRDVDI
Cyclin-dependent kinase 4 (Homo sapiens), sequence (P11802 whole entry): as the sequence (P11802 whole entry) above

Structure (SMILES) | IC50 [3] [nM] | IC50 [4] [nM] | IC50 [5] [nM] | inhibition [6] | IC50 [7] [nM] | inhibition [8] | IC50 [9] [nM] | IC50 [10] [nM] | IC50 [11] [nM] | IC50 [12] [nM] | solubility at 168 h [13] [µg/mL] | Solubility ([13]; buffer, 168 h) [µg/mL] | inhibition [15] [%] | Fold increase [1] | Fold increase [2] | Fold increase [14] | Fold increase [16]
Cl.Cn1ccc2ccc3c4[nH]c5c(CCN6CCOCC6)cccc5c4c4c(c3c21)C(=O)NC4=O |  |  |  |  |  |  |  |  |  |  |  |  |  | 2.3 | 1.2 |  | 
COc1ccc2c(c1)[nH]c1c3ccc4ccn(C)c4c3c3c(c21)C(=O)NC3=O | 1090 | 1800 | > 20000 | 97% |  | 90% | 53 | 6 | 112 |  |  |  |  |  | 2.6 |  | 
COc1ccc2c3c4c(c5c(ccc6ccn(C)c65)c3n(CCN[C@H]3CC[C@H](O)CC3)c2c1)C(=O)NC4=O | 1050 | 890 | 18000 |  |  | 67% | 63 | 23 | 902 | 1170 | 7800 (≈ 15.3 mM) | 7800 (≈ 15.3 mM) | 95 | 2 |  | 2 | 
COc1cc2ccn(C)c2c2c3c(c4c5ccccc5[nH]c4c12)C(=O)NC3=O | 690 | 1900 |  | 77% |  | 56% | 32 | 18 | 67 |  |  |  |  | 2.1 | 1.8 |  | 
COc1ccc2c3c4c(c5c(ccc6ccn(C)c65)c3n(CCCO)c2c1)C(=O)NC4=O | 500 | 1620 | 1040 | 95% |  | 66% | 54 | 12 | 113 |  |  |  |  |  | 2.4 |  | 
Cn1ccc2ccc3c4[nH]c5c(CCN6CCC[C@H]6CO)cccc5c4c4c(c3c21)C(=O)NC4=O [listing 1 of 2 here] | 210 | 420 | 4580 |  |  |  | 39 | 23 | 685 | 90 |  |  |  |  |  |  | 
Cn1ccc2ccc3c4[nH]c5c(CCN6CCCCC6)cccc5c4c4c(c3c21)C(=O)NC4=O | 2470 | 2120 | 9140 | 78% |  | 69% | 45 |  | 1060 | 62 | 8500 (≈ 18.9 mM) |  |  | 2.1 | 1.8 |  | 
Cn1ccc2ccc3c4[nH]c5c(CCN6CCC(O)CC6)cccc5c4c4c(c3c21)C(=O)NC4=O.O=C(O)C(F)(F)F |  |  |  |  |  |  |  |  |  |  |  |  |  |  | 1.8 |  | 
Cn1ccc2ccc3c4[nH]c5c(CCN6CCNCC6)cccc5c4c4c(c3c21)C(=O)NC4=O | 1110 | 1040 | 12900 |  |  |  | 49 | 15 | 2030 | 301 |  |  |  |  |  |  | 
Cn1ccc2ccc3c4[nH]c5c(CCN6CCC[C@H]6CO)cccc5c4c4c(c3c21)C(=O)NC4=O [listing 2 of 2 here] |  |  |  | 73% |  | 65% |  |  |  |  |  |  |  |  |  |  | 
COc1ccc2c3c4c(c5c(ccc6ccn(C)c65)c3n(CCCN3CCOCC3)c2c1)C(=O)NC4=O | 1630 | 1690 | > 20000 |  |  |  | 69 | 21 | 716 | > 20000 |  |  |  |  |  |  | 
Cn1ccc2ccc3c4[nH]c5c(CCN6CCOCC6)cccc5c4c4c(c3c21)C(=O)NC4=O [listing 1 of 2 here] | 1910 | 1630 | > 20000 |  |  |  | 54 | 15 | 1280 | 177 | 8700 (≈ 19.2 mM) |  |  | 2.2 | 1.5 |  | 
COc1ccc2c3c4c(c5c(ccc6ccn(C)c65)c3n(CCCN3CCSCC3)c2c1)C(=O)NC4=O | 2110 | 2020 | > 20000 |  |  |  | 190 | 47 | 1260 | > 20000 |  |  |  |  |  |  | 
CCN(CC)CCCc1cccc2c1[nH]c1c3ccc4ccn(C)c4c3c3c(c21)C(=O)NC3=O | 370 | 950 | 14100 |  |  |  | 34 | 24 | 1500 | 174 |  |  |  |  |  |  | 
COc1ccc2c3c4c(c5c(ccc6ccn(C)c65)c3n(CCCN3CCC(C(N)=O)CC3)c2c1)C(=O)NC4=O | 2440 | 1960 | 3380 | 67% |  | 58% | 77 | 13 | 1000 | 3050 |  |  |  |  | 1.9 |  | 2.5
Cn1ccc2ccc3c4[nH]c5c(CCN6CCC[C@H]6CO)cccc5c4c4c(c3c21)C(=O)NC4=O.O=C(O)C(F)(F)F |  |  |  |  |  |  |  |  |  |  |  |  |  |  | 1.5 |  | 
Cn1ccc2ccc3c4[nH]c5c(CCN6CCOCC6)cccc5c4c4c(c3c21)C(=O)NC4=O [listing 2 of 2 here] |  |  |  | 88% and 80% |  | 57% and 69% |  |  |  |  |  |  |  |  |  |  | 
COc1ccc2c3c4c(c5c(ccc6ccn(C)c65)c3n(CCCN3CCC(O)CC3)c2c1)C(=O)NC4=O | 1130 | 1260 | 2810 |  |  |  | 48 | 4 | 2100 | 3130 |  |  |  |  |  |  | 
Cn1ccc2ccc3c4[nH]c5c(CCN[C@H]6CC[C@H](O)CC6)cccc5c4c4c(c3c21)C(=O)NC4=O | 2820 | 1230 | 9810 | 87% |  | 78% | 53 | 5 | 450 | 49 |  |  |  |  | 2 |  | 

Second part, led by results:

IC50 [3] [nM] | IC50 [4] [nM] | IC50 [5] [nM] | inhibition [6] | IC50 [7] [nM] | inhibition [8] | IC50 [9] [nM] | IC50 [10] [nM] | IC50 [11] [nM] | IC50 [12] [nM] | solubility at 168 h [13] [µg/mL] | Solubility ([13]; buffer, 168 h) [µg/mL] | inhibition [15] [%] | Structure (SMILES) | Fold increase [1] | Fold increase [2] | Fold increase [14] | Fold increase [16]
710 | 1130 | 13200 | 86% | 35 | 71% | 54 |  |  |  |  |  |  | COc1cc2c3[nH]c4ccccc4c3c3c(c2c2c1ccn2C)C(=O)NC3=O | 2.2 | 1.2 |  | 
1280 | 1550 | 3150 | 78% |  | 57% | 72 | 28 | 432 | 732 | 8600 (≈ 18.3 mM) |  |  | COc1ccc2c3c4c(c5c(ccc6ccn(C)c65)c3n(CCCNCCO)c2c1)C(=O)NC4=O | 2.7 | 1.8 |  | 
1080 | 670 | 2350 | 95% |  | 37% | 33 | 9 |  |  |  |  |  | Cn1ccc2ccc3c4[nH]c5cc(O)ccc5c4c4c(c3c21)C(=O)NC4=O |  | 2.2 |  | 
 |  |  | 69% |  | 68% |  |  |  |  |  |  |  | Cn1ccc2ccc3c4[nH]c5c(CCN6CCC(O)CC6)cccc5c4c4c(c3c21)C(=O)NC4=O |  |  |  | 
330 | 170 | 6120 |  |  |  | 33 | 10 | 265 | 95 |  |  |  | Cn1ccc2ccc3c4[nH]c5c(CCNCCO)cccc5c4c4c(c3c21)C(=O)NC4=O |  |  |  | 
1310 | 1470 | 3740 | 92% |  | 71% | 35 | 21 | 89 | 527 | 6000 (≈ 13.1 mM) |  |  | COc1ccc2c3c4c(c5c(ccc6ccn(C)c65)c3n(CCNCCO)c2c1)C(=O)NC4=O |  | 3.1 |  | 
1350 | 1000 | 5890 | 55% |  | 52% | 51 | 5 | 796 | 25 |  |  |  | Cn1ccc2ccc3c4[nH]c5c(CCN6CCC(C(N)=O)CC6)cccc5c4c4c(c3c21)C(=O)NC4=O | 2.2 | 1.9 |  | 
3410 | 3410 | > 20000 |  |  |  | 82 | 24 | 1800 | 403 |  |  |  | Cn1ccc2ccc3c4[nH]c5c(CCN6CCSCC6)cccc5c4c4c(c3c21)C(=O)NC4=O |  |  |  | 
1680 | 2820 | > 20000 |  |  |  | 56 | 43 | 1330 | 516 |  |  |  | Cn1ccc2ccc3c4[nH]c5c(CCCN6CCOCC6)cccc5c4c4c(c3c21)C(=O)NC4=O |  |  |  | 
1100 | 770 | 8310 |  |  |  | 40 | 19 | 567 | 266 |  |  |  | Cn1ccc2ccc3c4[nH]c5c(CCCNCCO)cccc5c4c4c(c3c21)C(=O)NC4=O |  |  |  | 
> 10000 | > 10000 | > 20000 |  |  |  | 47 | 13 | 972 | 81 |  |  |  | COC(=O)C1CCN(CCc2cccc3c2[nH]c2c4ccc5ccn(C)c5c4c4c(c32)C(=O)NC4=O)CC1 |  |  |  | 
